Test results published in a melting point compilation (Tetko et al.).
Residues, ends and D or L forms follow the SMILES beside them. *: point of attachment. Boc = CC(C)(C)OC(=O)*; Bn = c1ccc(C*)cc1

Compared with `C=CC(CC(O)C(CC1CCCCC1)NC(=O)C(Cc1c[nH]cn1)NC(=O)C(Cc1ccccc1)NC(=O)CN(CCNC(=O)OC(C)(C)C)C(=O)OC(C)(C)C)C(C)C` (stereo not drawn), `CC(NC(=O)C(Cc1ccc(OCc2ccccc2)cc1)NC(=O)C(COCc1ccccc1)NC(=O)C(Cc1c[nH]c2ccccc12)NC(=O)OC(C)(C)C)C(=O)O` (stereo not drawn) (Boc-WS(Bn)Y(Bn)A-OH; configuration not given here) is lower in melting point: 109 °C for the first, 93 to 94 °C for the second.

Compared with `CC1=C(CC(=O)O)c2cc(C#N)ccc2C1=Cc1ccc(S(C)=O)cc1` (stereo not drawn), `CS(=O)(=O)N1CC=C(C#Cc2ccc3c(c2)NC(=O)CC(c2cccc(C#N)c2)=N3)CC1` is higher in melting point: 160 to 165 °C for the first, 235 °C for the second.

First: [C-]#[N+]CCCS(=O)(=O)c1ccc(C)cc1
Second: [C-]#[N+]C1(C)Cc2ccccc2C(=C)c2ccccc21 (stereo not drawn)
The melting point of the first is lower: 37 to 38 °C for the first, 146 to 148 °C for the second.

Compared with `CC(C)(C)c1cc(-c2cc(C(C)(C)C)cc(C(C)(C)C)c2OCP(=O)(c2ccccc2)c2ccccc2)c(OCP(=O)(c2ccccc2)c2ccccc2)c(C(C)(C)C)c1`, `COC(=O)c1cc(C(C)(C)C)c(OP2OP(Oc3c(C(C)(C)C)cc(C(=O)OC)cc3C(C)(C)C)OP(Oc3c(C(C)(C)C)cc(C(=O)OC)cc3C(C)(C)C)O2)c(C(C)(C)C)c1` (stereo not drawn) is lower in melting point: 211 to 212 °C for the first, 185 to 200 °C for the second.

First: CCCCCCCCCCCCNC(=O)c1cccc(Sc2c(Nc3cc(C(=O)NCCCCCCCCCCCC)ccc3Cl)nn(-c3c(Cl)cc(Cl)cc3Cl)c2OC(=O)CCC)c1
Second: CCCCCCCCCCCCCC(=O)Nc1ccc(Cl)c(NC2=NN(c3c(Cl)cc(Cl)cc3Cl)C(=O)C2Sc2nnnn2-c2cccc(C(=O)O)c2)c1 (stereo not drawn)
The melting point of the first is lower: 111 to 113 °C for the first, 155 to 165 °C for the second.

Compared with `O=C(O)CCC(CC=Cc1ccc(Cl)cc1)(C(=O)C=Cc1ccc(Cl)cc1)c1ccccc1` (stereo not drawn), `O=C(Nc1ccc(N2CCNCC2)cc1)c1ccccc1-c1ccccc1` is lower in melting point: 178 to 180 °C for the first, 176 °C for the second.

Going from `Nc1ncc(Br)cc1[N+](=O)[O-]` to `COc1cc(C(=O)c2c(C)c(C(=O)OCc3ccccc3)c3cc(N(C)C)ccn23)ccc1[N+](=O)[O-]`, the melting point falls from 209 °C to 167 °C.

First: CN=S(=O)(NC(=O)Nc1nc(OC)cc(OC)n1)c1ccccc1Br (stereo not drawn)
Second: COC(=O)c1ccccc1CN1C(=O)C2(COc3cc4c(cc32)OCO4)c2ccccc21 (stereo not drawn)
The melting point of the first is lower: 120 to 125 °C for the first, 166 to 167 °C for the second.

First: CCCCCCCS(=O)(=O)c1cc2c3cc(S(=O)(=O)CCCCCCC)c(S(=O)(=O)CCCCCCC)cc3c3cc(S(=O)(=O)CCCCCCC)c(S(=O)(=O)CCCCCCC)cc3c2cc1S(=O)(=O)CCCCCCC
Second: CCCCCCCCCCCCS(=O)(=O)c1c(S(=O)(=O)CCCCCCCCCCCC)c(S(=O)(=O)CCCCCCCCCCCC)c(S(=O)(=O)CCCCCCCCCCCC)c(S(=O)(=O)CCCCCCCCCCCC)c1S(=O)(=O)CCCCCCCCCCCC
The melting point of the first is higher: 256 to 258 °C for the first, 60 °C for the second.

First: CCNC(=O)[C@@H](C)NC(=O)[C@H](Cc1c[nH]cn1)NC(=O)[C@H](COCc1ccccc1)NC(=O)[C@H](Cc1ccc(OCc2ccccc2)cc1)NC(=O)[C@H](Cc1c[nH]cn1)NCc1ccccc1
Second: CC(=O)OC1C(=O)C2(C)C(O)CC3OCC3(OC(C)=O)C2C(OC(=O)c2ccccc2)C2(O)CC(OC(=O)C(OC(=O)CCC(=O)O)C(NC(=O)c3ccccc3)c3ccccc3)C(C)=C1C2(C)C (stereo not drawn)
The melting point of the first is lower: 83 to 88 °C for the first, 178 to 180 °C for the second.

First: CC(=O)N1C(C)(C)CC(OC(=O)CCn2c(=O)n(CCC(=O)OC3CC(C)(C)N(C(C)=O)C(C)(C)C3)c(=O)n(CCC(=O)OC3CC(C)(C)N(C(C)=O)C(C)(C)C3)c2=O)CC1(C)C
Second: CC(=O)N1C(C)(C)CC(OC(=O)C(Cc2cc(C(C)(C)C)c(O)c(C(C)(C)C)c2)(Cc2cc(C(C)(C)C)c(O)c(C(C)(C)C)c2)C(=O)OC2CC(C)(C)N(C(C)=O)C(C)(C)C2)CC1(C)C
The melting point of the first is lower: 126 to 128 °C for the first, 202 °C for the second.

With `CCCCCCCCCCCCCCCCCCN(CCCCCCCCCCCCCCCCCC)C(=O)c1cc(NS(=O)(=O)c2cnc(Cl)c(OC)c2)c2ccccc2c1O` the melting point was 85 to 87 °C.
